# Assay results as given in patent US7655395B2, “Isolation and use of ryanodine receptors” (E.I. du Pont de Nemours and Company, priority 2002, dated 2010).
# Columns and labels:
# [1] = biological target: native cockroach ryanodine receptors (roach femoral muscle membranes) (Periplaneta americana, UniProt A0ABQ8T696); assay: Radioligand displacement ([3H]-GN analog Cpd 1) on roach femoral muscle membranes; format: binding
# Method: Binding to Roach Femoral Muscle Membranes:
# Assays were carried out in triplicate.
# [2] = test system: native cockroach ryanodine receptors (in embryonic neuronal cells); assay: Calcium release assay, calcium imaging of embryonic cockroach neuronal cells (Fluo-4); format: cell-based, Periplaneta americana
# Excerpt: Embryonic neuronal cultures of the American cockroach Periplaneta americana were established, with minor modifications, following the method of Beadle and Lees (1988) (in Cell Culture Approaches to Invertebrate Neuroscience, Academic Press, New York, pp 123-127). Briefly, 26-27-day old oothecae were collected, surface-sterilized and cut open along a line one-third of the distance below the dorsal midline. The heads were removed and placed in Schneider's Drosophila medium (Invitrogen Life Technologies™, Carlsbad, Calif.). Using fine forceps 40 brains were individually removed and placed in a small glass vial containing 700 μl of ‘5+4’ medium (‘5+4’ medium contained 5 parts Schneider's Drosophila medium plus 4 parts roach Basal Medium Eagle, with Earle's salts (BME, Sigma™, St. Louis, Mo.). Roach BME (with Earle's salts) contained 5 parts Hepes (1 M), 1 part penicillin/streptomycin and 44 parts BME (with Earle's salts). ‘5+4’ medium was made fresh and sterile filtered (0.2 μm filter) just prior to use). The brains were dissociated by sequential trituration as follows: 1) brains were passed through a standard Pasteur pipette 10 times; 2) the resulting tissue suspension was passed an additional 5 times through a Pasteur pipet with tip flamed to about half of its original diameter; 3) a final 5 passes were performed using a Pasteur pipet with tip flamed to slightly less than half of its original diameter. A repeat pipettor was used to dispense a 5 μl volume of the resulting suspension into the center of each well of a 96-well, glass-bottom plate previously coated with poly-L-lysine (0.2 mg/ml solution). Cells attached to the bottom of the wells during a 50 min incubation at 27-29° C. 150 ul of a 1:1 mixture of Leibovitz's L-15 medium and Yunker's modified Grace's medium was added, and plates were maintained in a humid incubator at 27-29° C. until use. After cells were allowed to attach wells were filled with a 1:1 mixture of Leibovitz's L-15 medium and Yunker's modified Grace's medium (Leibovitz's L-15 and Grace's medium were obtained from Invitrogen Life Technologies™, Carlsbad, Calif. and Yunker's modified Grace's medium was made with Grace's medium modified by addition of 5 mg L-methionine, 10 mg L-alanine, 182 mg MgCl2.6H20, 1 g Albumin Fraction V, 7 ml Fetal bovine serum, 10 ml Chick embryo extract, 2 ml Penicillin/Streptomycin, and 2 mg 20-hydroxyecdysone (prepared in ethanol prior to addition) to a final volume of 100 ml and sterile filtered (0.2 μm filter)). Cells were maintained in a high humidity incubator at 29° C. until testing.
# The calcium imaging and acquisition protocols using roach neuronal cells is as follows:
# Cells were rinsed in standard physiological saline having the following composition (mM): NaCl 190; CaCl2 9; KCl 3.1; probenicid 1; Tris buffer 10; pH 7.2. Cells were then bathed in standard physiological saline containing the calcium sensitive fluoroprobe Fluo-4 AM (2 μM) and Pluronic F127 (0.002%) for 45 min. Cells were then rinsed in standard physiological saline for at least 15 min prior to testing. Within the hour prior to testing, standard physiological saline was replaced with standard physiological saline containing the organic cation channel blocker pimozide (10 μM), to inhibit influx of external calcium through voltage-gated calcium channels. The 96-well plate was placed on a Prior™ motorized stage mounted onto a Nikon Diaphot microscope and imaged using a 20× Fluor objective (NA 0.75). Individual wells from the 96-well plate were sequentially excited with light at 495 nm, and the emitted fluorescence at 530 nm was detected using a Hamamatsu ORCA ER digital camera with 2 pixel binning (image size 672×512 pixels).
# Acquisition control, image processing and image analysis were conducted using Universal Imaging Corporation's MetaMorph™ imaging software (Universal Imaging, West Chester, Pa.). A series of 3 “control” images were acquired for each well. […]
# Sequence of native cockroach ryanodine receptors (roach femoral muscle membranes) (A0ABQ8T696 entry or part of it): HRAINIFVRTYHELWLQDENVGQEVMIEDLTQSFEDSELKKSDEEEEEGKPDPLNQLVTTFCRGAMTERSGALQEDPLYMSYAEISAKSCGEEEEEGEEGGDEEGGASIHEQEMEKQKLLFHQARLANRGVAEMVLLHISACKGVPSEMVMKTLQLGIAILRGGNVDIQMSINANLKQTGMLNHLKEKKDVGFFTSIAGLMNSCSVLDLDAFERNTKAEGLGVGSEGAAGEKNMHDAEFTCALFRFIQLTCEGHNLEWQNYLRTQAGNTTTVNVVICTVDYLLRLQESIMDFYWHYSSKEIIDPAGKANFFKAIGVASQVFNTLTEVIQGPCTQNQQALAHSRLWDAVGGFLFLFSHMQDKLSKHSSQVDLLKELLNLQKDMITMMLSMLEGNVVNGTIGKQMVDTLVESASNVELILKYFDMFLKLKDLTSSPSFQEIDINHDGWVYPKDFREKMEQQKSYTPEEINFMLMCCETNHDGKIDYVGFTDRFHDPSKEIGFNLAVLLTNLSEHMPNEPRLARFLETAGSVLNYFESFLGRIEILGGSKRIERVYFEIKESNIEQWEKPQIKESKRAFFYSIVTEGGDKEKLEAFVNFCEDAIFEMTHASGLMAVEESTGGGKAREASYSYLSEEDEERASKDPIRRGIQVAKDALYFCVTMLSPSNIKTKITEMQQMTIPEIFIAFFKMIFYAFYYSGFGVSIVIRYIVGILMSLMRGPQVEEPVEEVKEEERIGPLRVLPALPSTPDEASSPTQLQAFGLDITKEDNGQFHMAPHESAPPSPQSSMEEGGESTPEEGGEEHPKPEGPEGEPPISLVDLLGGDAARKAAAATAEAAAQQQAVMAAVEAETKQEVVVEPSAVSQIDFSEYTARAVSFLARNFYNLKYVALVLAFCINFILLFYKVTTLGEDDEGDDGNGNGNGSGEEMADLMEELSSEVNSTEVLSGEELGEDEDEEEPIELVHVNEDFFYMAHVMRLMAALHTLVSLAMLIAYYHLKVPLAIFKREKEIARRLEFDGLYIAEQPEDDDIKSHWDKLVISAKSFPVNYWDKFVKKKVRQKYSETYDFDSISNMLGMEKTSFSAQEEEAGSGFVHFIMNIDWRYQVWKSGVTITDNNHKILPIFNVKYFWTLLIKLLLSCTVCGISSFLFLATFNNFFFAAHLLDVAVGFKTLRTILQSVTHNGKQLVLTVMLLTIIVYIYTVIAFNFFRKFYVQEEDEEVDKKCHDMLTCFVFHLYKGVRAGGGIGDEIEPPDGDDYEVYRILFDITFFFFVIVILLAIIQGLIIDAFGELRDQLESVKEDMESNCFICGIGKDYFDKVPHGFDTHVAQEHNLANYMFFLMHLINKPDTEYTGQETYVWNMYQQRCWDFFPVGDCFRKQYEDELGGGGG
Compound,"Radioligand Displacement (P. americana) ([1]; Table 6, result in words)","Calcium Release (P. americana) ([2]; Table 6, result in words)","IC50 ([1]; displacement of [3H]-Cpd 1, roach muscle membranes, 60 min at 32° C., read-out: Displacement IC50 (nM) P. americana)",Calcium Release Threshold (nM) P. americana [2]
"Cn1c(=O)c2c(ncn2C)n(C)c1=O [Caffeine, reference compound]",Inactive,Agonist,,
CNC(=O)c1cc(Cl)cc(C)c1NC(=O)c1cc(Br)nn1-c1ncccc1Cl [Cpd 14],,,< 300 nM,<300 nM
